Results taken from ChEMBL document CHEMBL5030545, “Discovery of clinical candidate Sivopixant (S-600918): Lead optimization of dioxotriazine derivatives as selective P2X3 receptor antagonists” (Bioorg Med Chem Lett, 2021).
Values after ≈ are worked out from the molar mass of the structure shown.

Tests used:
[1] = target: T1, P2X purinoceptor 1 (Homo sapiens, UniProt P51575); assay: Antagonist activity at P2X1 receptor (unknown origin)
T1 sequence (P51575 whole entry): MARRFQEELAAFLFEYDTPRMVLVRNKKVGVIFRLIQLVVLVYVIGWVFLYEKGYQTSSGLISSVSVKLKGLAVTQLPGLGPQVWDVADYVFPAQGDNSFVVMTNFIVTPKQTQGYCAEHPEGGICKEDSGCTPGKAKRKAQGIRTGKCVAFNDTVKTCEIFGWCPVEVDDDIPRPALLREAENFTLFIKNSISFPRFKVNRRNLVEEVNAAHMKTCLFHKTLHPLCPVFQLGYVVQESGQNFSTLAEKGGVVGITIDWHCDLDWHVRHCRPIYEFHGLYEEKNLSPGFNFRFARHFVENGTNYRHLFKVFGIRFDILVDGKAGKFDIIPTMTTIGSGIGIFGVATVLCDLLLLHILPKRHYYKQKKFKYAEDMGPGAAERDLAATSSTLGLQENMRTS

[2] = Ratio of free plasma concentration in rat measured after 3 hrs to IC50 of P2X3 (unknown origin); assay type: ADME
[3] = Clearance in rat at 1 mg/kg, iv; assay type: ADME, organism-based; settings: in vivo
[4] = target: T2, P2X purinoceptor 4 (Homo sapiens, UniProt Q99571); assay: Antagonist activity at P2X4 receptor (unknown origin)
T2 sequence (Q99571 whole entry): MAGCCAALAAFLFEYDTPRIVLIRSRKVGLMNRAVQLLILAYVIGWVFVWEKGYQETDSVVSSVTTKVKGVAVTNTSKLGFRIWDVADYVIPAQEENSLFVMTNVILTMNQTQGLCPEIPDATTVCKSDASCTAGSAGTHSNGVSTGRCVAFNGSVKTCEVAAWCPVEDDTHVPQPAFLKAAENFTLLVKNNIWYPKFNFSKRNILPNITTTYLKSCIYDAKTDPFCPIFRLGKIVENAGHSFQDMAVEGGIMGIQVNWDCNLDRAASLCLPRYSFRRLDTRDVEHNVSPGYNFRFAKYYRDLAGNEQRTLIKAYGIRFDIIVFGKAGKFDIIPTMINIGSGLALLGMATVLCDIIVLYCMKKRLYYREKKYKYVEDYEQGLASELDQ

[5] = target: T3, P2X purinoceptor 7 (Homo sapiens, UniProt Q99572); assay: Antagonist activity at P2X7 receptor (unknown origin)
T3 sequence (Q99572 whole entry): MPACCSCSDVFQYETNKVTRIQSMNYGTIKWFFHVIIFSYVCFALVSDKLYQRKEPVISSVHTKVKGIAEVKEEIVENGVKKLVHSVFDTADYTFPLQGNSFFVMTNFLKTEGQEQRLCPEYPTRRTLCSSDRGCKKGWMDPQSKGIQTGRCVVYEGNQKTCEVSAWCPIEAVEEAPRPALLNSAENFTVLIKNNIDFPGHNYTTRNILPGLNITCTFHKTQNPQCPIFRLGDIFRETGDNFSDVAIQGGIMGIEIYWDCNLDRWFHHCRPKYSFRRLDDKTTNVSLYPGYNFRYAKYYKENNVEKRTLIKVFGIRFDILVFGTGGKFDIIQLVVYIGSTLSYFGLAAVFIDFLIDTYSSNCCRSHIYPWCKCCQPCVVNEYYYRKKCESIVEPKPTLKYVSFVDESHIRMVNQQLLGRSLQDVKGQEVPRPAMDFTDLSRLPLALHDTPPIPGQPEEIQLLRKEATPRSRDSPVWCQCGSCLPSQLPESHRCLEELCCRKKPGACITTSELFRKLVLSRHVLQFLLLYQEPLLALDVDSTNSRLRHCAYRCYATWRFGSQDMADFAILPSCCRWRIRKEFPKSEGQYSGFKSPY

[6] = target: T4, P2X purinoceptor 2 (Homo sapiens, UniProt Q9UBL9); assay: Antagonist activity at P2X2 receptor (unknown origin)
T4 sequence (Q9UBL9 whole entry): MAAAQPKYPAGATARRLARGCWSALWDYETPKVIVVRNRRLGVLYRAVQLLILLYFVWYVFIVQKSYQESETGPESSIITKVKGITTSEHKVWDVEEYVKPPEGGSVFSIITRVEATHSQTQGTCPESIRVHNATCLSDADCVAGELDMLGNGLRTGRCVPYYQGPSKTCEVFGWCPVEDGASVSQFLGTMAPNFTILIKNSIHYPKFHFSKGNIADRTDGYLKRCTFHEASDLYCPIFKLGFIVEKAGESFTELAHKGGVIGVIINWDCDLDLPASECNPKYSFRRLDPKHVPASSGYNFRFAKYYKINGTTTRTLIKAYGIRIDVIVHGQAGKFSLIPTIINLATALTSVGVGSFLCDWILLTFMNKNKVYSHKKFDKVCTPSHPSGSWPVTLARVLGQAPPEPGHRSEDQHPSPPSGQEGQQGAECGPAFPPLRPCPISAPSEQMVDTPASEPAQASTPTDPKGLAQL

[7] = Half life in rat at 1 mg/kg, iv; assay type: ADME, organism-based; settings: in vivo
[8] = test system: Rattus norvegicus; assay: Analgesic activity in rat model of partial sciatic nerve ligation-induced neuropathic pain assessed as maximum efficacy at 3 mg/kg, po relative to control; assay type: functional
[9] = target: Cytochrome P450 2D6 (Homo sapiens, UniProt P10635); assay: Inhibition of CYP2D6 (unknown origin); assay type: functional
Chain of Cytochrome P450 2D6 (P10635 whole entry): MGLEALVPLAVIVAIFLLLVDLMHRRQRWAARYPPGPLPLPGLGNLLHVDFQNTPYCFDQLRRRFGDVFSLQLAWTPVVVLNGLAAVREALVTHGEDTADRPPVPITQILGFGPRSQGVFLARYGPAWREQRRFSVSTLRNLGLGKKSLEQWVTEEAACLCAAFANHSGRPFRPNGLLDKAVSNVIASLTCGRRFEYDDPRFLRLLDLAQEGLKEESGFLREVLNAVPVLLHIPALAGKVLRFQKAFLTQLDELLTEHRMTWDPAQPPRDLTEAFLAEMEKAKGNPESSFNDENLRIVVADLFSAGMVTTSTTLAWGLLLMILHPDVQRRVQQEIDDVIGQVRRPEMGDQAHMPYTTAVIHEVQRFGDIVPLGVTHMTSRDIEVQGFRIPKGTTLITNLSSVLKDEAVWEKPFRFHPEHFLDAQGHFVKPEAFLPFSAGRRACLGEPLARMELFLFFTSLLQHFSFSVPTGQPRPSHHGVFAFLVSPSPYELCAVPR

[10] = target: Cytochrome P450 3A4 (Homo sapiens, UniProt P08684); assay: Inhibition of CYP3A4 (unknown origin); assay type: ADME
Chain of Cytochrome P450 3A4 (P08684 whole entry): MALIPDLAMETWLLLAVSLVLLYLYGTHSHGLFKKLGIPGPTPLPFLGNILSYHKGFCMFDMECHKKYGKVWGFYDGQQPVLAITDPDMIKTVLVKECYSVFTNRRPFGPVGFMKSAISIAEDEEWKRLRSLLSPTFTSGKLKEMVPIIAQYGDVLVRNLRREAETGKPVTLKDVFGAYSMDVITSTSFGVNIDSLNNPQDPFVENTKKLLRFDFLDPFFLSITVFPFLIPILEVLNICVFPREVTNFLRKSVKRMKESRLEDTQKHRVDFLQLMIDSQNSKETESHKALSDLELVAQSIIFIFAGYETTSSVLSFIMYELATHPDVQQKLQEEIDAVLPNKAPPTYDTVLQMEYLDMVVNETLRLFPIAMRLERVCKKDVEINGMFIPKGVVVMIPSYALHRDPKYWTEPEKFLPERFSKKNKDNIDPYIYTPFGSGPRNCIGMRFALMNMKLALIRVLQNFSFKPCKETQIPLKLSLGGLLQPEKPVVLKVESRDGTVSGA

[11] = test system: Rattus norvegicus; assay: Analgesic activity in rat model of partial sciatic nerve ligation-induced neuropathic pain assessed as reversal of allodynia at 3 mg/kg, po measured after 3 hrs relative to control; assay type: functional
[12] = Oral bioavailability in rat at 1 mg/kg administered as cassette dose; assay type: ADME, organism-based; settings: in vivo
[13] = Cmax in rat at 3 mg/kg, po; assay type: ADME, organism-based; parameters: route oral, dose 3 mg/kg; settings: in vivo
[14] = target: Cytochrome P450 2C19 (Homo sapiens, UniProt P33261); assay: Inhibition of CYP2C19 (unknown origin); assay type: ADME
Chain of Cytochrome P450 2C19 (P33261 whole entry): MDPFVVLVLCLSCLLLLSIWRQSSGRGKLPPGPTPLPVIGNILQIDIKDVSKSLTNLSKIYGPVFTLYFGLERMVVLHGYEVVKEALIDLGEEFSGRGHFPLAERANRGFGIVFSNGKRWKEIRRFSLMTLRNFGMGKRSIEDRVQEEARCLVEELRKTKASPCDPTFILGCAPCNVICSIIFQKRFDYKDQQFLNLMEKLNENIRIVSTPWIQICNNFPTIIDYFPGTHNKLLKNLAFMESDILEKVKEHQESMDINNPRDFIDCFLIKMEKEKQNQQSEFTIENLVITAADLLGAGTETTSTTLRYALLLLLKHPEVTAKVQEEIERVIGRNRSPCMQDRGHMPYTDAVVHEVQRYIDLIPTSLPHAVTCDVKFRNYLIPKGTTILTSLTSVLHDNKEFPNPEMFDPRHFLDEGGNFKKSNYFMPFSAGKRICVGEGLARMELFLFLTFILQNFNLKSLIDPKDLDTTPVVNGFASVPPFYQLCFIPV

[15] = Free plasma concentration in rat plasma at 1 mg/kg administered as cassette dose; assay type: ADME, organism-based; settings: in vivo
[16] = Solubility of the compound in JP2 fluid at pH 6.8; assay type: physicochemical

SMILES: C[C@@H](Cn1c(=O)[nH]/c(=N\c2ccc(Oc3ccccn3)cc2)n(Cc2ccc(Cl)cc2)c1=O)C(=O)O
- IC50 [1]: > 30 µM
- Ratio [2]: 1.57
- clearance [3]: 2.7 mL/min/kg
- IC50 [4]: > 30 µM
- IC50 [5]: > 30 µM
- IC50 [6]: > 30 µM
- half-life [7]: 10.1 h
- Emax at 3 mg/kg [8]: 64%
- IC50 [9]: > 20 µM
- IC50 [10]: > 20 µM
- Activity [11]: 64%
- bioavailability [12]: 52.8%
- Cmax [13]: 1630 ng/mL
- IC50 [14]: > 20 µM
- Cp(f) [15]: 658 nM
- solubility [16]: 458 µg/mL (≈ 902 µM)
